Counter-ions that a name gives are not always drawn.
system: longitudinal muscle of guinea pig ileum; test: Antagonism of the contraction elicited by SPOMe (substance P methyl ester) on guinea pig ileum longitudinal muscle (isometric contraction); settings: Cavia porcellus, compound at 1.0 μM, 0.1μM SPOMe

Row | SMILES | inhibition at 1 µM [%]
1 | O=[N+]([O-])c1cccc(CO[C@H]2C3CCN(CC3)[C@H]2C(c2ccccc2)c2ccccc2)c1 (relative stereo) [Example 1, cis-2-(Diphenylmethyl)-3-(3-nitrobenzyloxy)-1-azabicyclo[2.2.2]octane oxalate] | > 70
2 | FC(F)(F)c1ccccc1CO[C@H]1C2CCN(CC2)[C@H]1C(c1ccccc1)c1ccccc1 (relative stereo) [Example 2, cis-2-(Diphenylmethyl)-3-[2-(trifluoromethyl)benzyloxy]-1-azabicyclo[2.2.2]octane oxalate] | > 70
3 | Clc1cccc(CO[C@H]2C3CCN(CC3)[C@H]2C(c2ccccc2)c2ccccc2)c1 (relative stereo) [Example 4, cis-3-(3-Chlorobenzyloxy)-2-(diphenylmethyl)-1-azabicyclo[2.2.2]octane oxalate] | > 70
4 | Fc1cc(F)cc(CO[C@H]2C3CCN(CC3)[C@H]2C(c2ccccc2)c2ccccc2)c1 (relative stereo) [Example 7, cis-3-(3,5-Difluorobenzyloxy)-2-(diphenylmethyl)-1-azabicyclo[2.2.2]octane oxalate] | > 70
5 | COc1ccc(CO[C@H]2C3CCN(CC3)[C@H]2C(c2ccccc2)c2ccccc2)cc1 (relative stereo) [Example 8, cis-2-(Diphenylmethyl)-3-(4-methoxybenzyloxy)-1-azabicyclo[2.2.2]octane oxalate] | > 70
